# Laboratory results from patent EP2351737A1, “3-Amino-1-arylpropyl indoles and aza-substituted indoles” (F. Hoffmann-La Roche AG, priority 2005, dated 2007).
# Structures can show the parent of a compound that is named as a salt.
# Experiments:
# [1] = molecular target: T1, Human Serotonin Transporter (hSERT) (Homo sapiens, UniProt P31645); assay: Human Serotonin Transporter (hSERT) Scintillation Proximity Assay (SPA), competition with [3H]-Citalopram; format: binding; settings: membranes of HEK-293 cells expressing recombinant hSERT, Ki by Cheng-Prusoff; for Ki: read-out: pKi SERT (converted)
# T1 construct: expressed in transfected cells; membranes prepared from them
# From the text: Screening for Human Serotonin Transporter (hSERT) Antagonists Using a Scintillation Proximity Assay (SPA)
# Scintillation Proximity Assay (SPA) works by bringing radioligand within close proximity to the bead's scintillant to stimulate light emission. […] Unbound radioligand produced no signal as a result of distant proximity to scintillant (lack of energy transfer).
# [2] = molecular target: Human Norepinephrine Transporter (hNET) (Homo sapiens, UniProt P23975); assay: Human Norepinephrine Transporter (hNET) Scintillation Proximity Assay (SPA), competition with [3H]-Nisoxetine; settings: membranes of HEK-293 cells expressing recombinant hNET, Ki by Cheng-Prusoff; for Ki: pKi NET
# Human Norepinephrine Transporter (hNET), sequence (P23975 whole entry): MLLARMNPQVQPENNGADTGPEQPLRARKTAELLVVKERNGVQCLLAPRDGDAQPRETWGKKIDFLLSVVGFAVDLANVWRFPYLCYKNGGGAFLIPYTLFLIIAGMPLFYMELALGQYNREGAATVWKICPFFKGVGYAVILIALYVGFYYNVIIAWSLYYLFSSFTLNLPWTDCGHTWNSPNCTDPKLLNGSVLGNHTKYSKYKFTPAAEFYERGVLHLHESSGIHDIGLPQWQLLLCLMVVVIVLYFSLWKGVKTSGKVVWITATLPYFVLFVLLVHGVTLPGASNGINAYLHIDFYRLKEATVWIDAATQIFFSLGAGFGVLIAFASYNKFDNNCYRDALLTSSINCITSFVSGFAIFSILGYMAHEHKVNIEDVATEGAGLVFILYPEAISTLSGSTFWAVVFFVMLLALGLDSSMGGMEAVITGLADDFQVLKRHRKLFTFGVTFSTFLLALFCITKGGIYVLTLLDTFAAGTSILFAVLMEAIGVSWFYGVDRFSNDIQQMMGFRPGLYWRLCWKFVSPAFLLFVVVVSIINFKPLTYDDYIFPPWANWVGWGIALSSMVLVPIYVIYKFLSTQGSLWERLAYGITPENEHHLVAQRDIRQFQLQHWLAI
# T1 sequence (P31645 whole entry): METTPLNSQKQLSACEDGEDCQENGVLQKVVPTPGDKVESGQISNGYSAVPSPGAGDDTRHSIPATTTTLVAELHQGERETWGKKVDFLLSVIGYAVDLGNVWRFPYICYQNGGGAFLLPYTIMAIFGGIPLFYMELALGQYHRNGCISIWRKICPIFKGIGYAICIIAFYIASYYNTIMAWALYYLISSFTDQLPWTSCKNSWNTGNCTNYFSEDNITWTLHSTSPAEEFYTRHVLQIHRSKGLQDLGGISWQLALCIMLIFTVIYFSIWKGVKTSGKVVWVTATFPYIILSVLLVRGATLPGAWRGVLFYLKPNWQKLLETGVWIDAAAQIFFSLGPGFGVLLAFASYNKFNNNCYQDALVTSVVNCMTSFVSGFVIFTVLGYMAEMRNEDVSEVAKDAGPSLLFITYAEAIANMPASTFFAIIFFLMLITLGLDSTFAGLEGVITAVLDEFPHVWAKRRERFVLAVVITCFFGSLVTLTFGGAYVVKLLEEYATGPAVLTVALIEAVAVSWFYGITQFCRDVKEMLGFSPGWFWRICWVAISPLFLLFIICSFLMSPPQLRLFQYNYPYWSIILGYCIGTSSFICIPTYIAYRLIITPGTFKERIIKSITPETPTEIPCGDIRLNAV
Molecule,pKi SERT [1],pKi NET [2],Ki [1] [nM],Ki [2] [nM]
3-[1-(7-Fluoro-1H-indol-5-yl)-3-methylamino-propyl]-benzonitrile [Compound 110],7.59,7.95,–,–
4-Methoxy-5-(3-methylamino-1-phenyl-propyl)-1H-indole-3-carbonitrile [Compound 89],9.07,6.05,–,–
5-(3-Amino-1-phenyl-propyl)-1H-indole-3-carbonitrile [Compound 70],8.74,6.39,–,–
5-(3-Methylamino-1-phenyl-propyl)-1H-indole-3-carbonitrile [Compound 10],9.42,7.03,–,–
5-(3-Methylamino-1-phenyl-propyl)-1H-indole-3-carboxylic acid methylamide [Compound 129],7.18,7.72,–,–
5-[1-(1H-Indol-5-yl)-3-methylamino-propyl]-1H-indole-3-carbonitrile [Compound 122],9.24,7.7,–,–
7-Chloro-5-(3-methylamino-1-phenyl-propyl)-1H-indole-2-carboxylic acid amide [Compound 105],7.31,8.35,–,–
7-Fluoro-5-(3-methylamino-1-(S)-phenyl-propyl)-1H-indole-3-carbonitrile [Compound 104],8.1,7.49,–,–
"CNCCC(c1ccccc1)c1ccc2[nH]c(C)cc2c1 (stereo not drawn) [Compound 7, Methyl-[3-(2-methyl-1H-indol-5-yl)-3-phenyl-propyl]-amine]",–,–,11,91.2
"CNCCC(c1ccccc1)c1ccc2ccn(C)c2c1 (stereo not drawn) [Compound 9, Methyl-[3-(1-methyl-1H-indol-6-yl)-3-phenyl-propyl]-amine]",–,–,9.55,74.1
CNCCC(c1ccccc1)c1cc(F)c2[nH]ccc2c1 (stereo not drawn) [Compound 13],7.4,8.2,–,–
"CNCCC(c1ccccc1)c1ccc2[nH]cc(C)c2c1 (stereo not drawn) [Compound 15, Methyl-[3-(3-methyl-1H-indol-5-yl)-3-phenyl-propyl]-amine]",–,–,5.25,40.7
CNCCC(c1ccccc1)c1ccc2[nH]cc(S(C)(=O)=O)c2c1 (stereo not drawn) [Compound 16],–,–,151,724
CNCCC(c1ccccc1)c1cc(F)c2[nH]cc(C#N)c2c1 (stereo not drawn) [Compound 19],–,–,2.14,56.2
"CNCCC(c1ccccc1)c1ccc2[nH]c(C(N)=O)cc2c1 (stereo not drawn) [Compound 24, 5-(3-Methylamino-1-phenyl-propyl)-1H-indole-2-carboxylic acid amide]",–,–,70.8,2.88
"CNCCC(c1ccccc1)c1ccc2c(C#N)c[nH]c2c1 (stereo not drawn) [Compound 28, 6-(3-Methylamino-1-phenyl-propyl)-1H-indole-3-carbonitrile]",9.72,6.89,–,–
CNCCC(c1ccccc1)c1cc(OC)c2cc[nH]c2c1 (stereo not drawn) [Compound 30],9.06,7.63,–,–
"CNCCC(c1ccccc1)c1ccc2[nH]ccc2c1 (stereo not drawn) [Compound 42, [3-(1H-Indol-5-yl)-3-phenyl-propyl]-methyl-amine]",–,8.0,32.4,–
"CNCCC(c1ccccc1)c1ccc2[nH]ncc2c1 (stereo not drawn) [Compound 51, [3-(1H-Indazol-5-yl)-3-phenyl-propyl]-methyl-amine hydrochloride]",–,–,15.8,34.7
"CNCCC(c1ccccc1)c1ccc2[nH]nc(C)c2c1 (stereo not drawn) [Compound 58, Methyl-[3-(3-methyl-1H-indazol-5-yl)-3-phenyl-propyl]-amine]",–,–,42.7,191
"CNCC[C@@H](c1ccccc1)c1ccc2[nH]nc(Cl)c2c1 [Compound 60, [(S)-3-(3-Chloro-1H-indazol-5-yl)-3-phenyl-propyl]-methyl-amine]",–,–,8.51,40.7
"CNCC[C@H](c1ccccc1)c1ccc2[nH]nc(Cl)c2c1 [Compound 61, [(R)-3-(3-Chloro-1H-indazol-5-yl)-3-phenyl-propyl]-methyl-amine trifluoracetate]",–,–,3.39,123
"CNCCC(c1ccccc1)c1cc(OC)c2[nH]ncc2c1 (stereo not drawn) [Compound 75, [3-(7-Methoxy-1H-indazol-5-yl)-3-phenyl-propyl]-methyl-amine]",–,–,5.62,6.61
"CNCCC(c1ccccc1)c1cc(C)c2[nH]ncc2c1 (stereo not drawn) [Compound 76, Methyl-[3-(7-methyl-1H-indazol-5-yl)-3-phenyl-propyl]-amine]",–,–,17.4,25.7

Molecule,pKi SERT [1],pKi NET [2],Ki [1] [nM],Ki [2] [nM]
"CNCCC(c1ccccc1)c1cc(Cl)c2[nH]ncc2c1 (stereo not drawn) [Compound 77, [3-(7-Chloro-1H-indazol-5-yl)-3-phenyl-propyl]-methyl-amine]",–,–,9.12,5.5
"CNCC[C@H](c1ccccc1)c1cc(C)c2[nH]ncc2c1 [Compound 78, Methyl-[3-(7-methyl-1H-indazol-5-yl)-3-(R)-phenyl-propyl]-amine]",–,–,10,19.5
"CCOc1n[nH]c2ccc(C(CCNC)c3ccccc3)cc12 (stereo not drawn) [Compound 79, [3-(3-Ethoxy-1H-indazol-5-yl)-3-phenyl-propyl]-methyl-amine]",–,–,26.9,132
"CNCCC(c1ccccc1)c1ccc2[nH]nc(OC(C)C)c2c1 (stereo not drawn) [Compound 80, [3-(3-Isopropoxy-1H-indazol-5-yl)-3-phenyl-propyl]-methyl-amine]",–,–,33.1,148
"CNCCC(c1ccccc1)c1ccc2[nH]nc(OCC3CC3)c2c1 (stereo not drawn) [Compound 81, [3-(3-Cyclopropylmethoxy-1H-indazol-5-yl)-3-phenyl-propyl]-methyl-amine]",–,–,56.2,214
"CNCC[C@@H](c1ccccc1)c1cc(OC)c2[nH]ncc2c1 [Compound 82, [3-(7-Methoxy-1H-indazol-5-yl)-3-(S)-phenyl-propyl]-methyl-amine]",–,–,3.72,2.63
"CNCC[C@H](c1ccccc1)c1cc(OC)c2[nH]ncc2c1 [Compound 83, [3-(7-Methoxy-1H-indazol-5-yl)-3-(R)-phenyl-propyl]-methyl-amine]",–,–,11.5,53.7
"CNCC[C@H](c1ccccc1)c1cc(Cl)c2[nH]ncc2c1 [Compound 84, [3-(7-Chloro-1H-indazol-5-yl)-3-(R)-phenyl-propyl]-methyl-amine]",–,–,5.89,7.76
"CNCCC(c1ccccc1)c1cc(C(F)(F)F)c2[nH]ncc2c1 (stereo not drawn) [Compound 85, Methyl-[3-phenyl-3-(7-trifluoromethyl-1H-indazol-5-yl)-propyl]-amine]",–,–,21.4,15.1
"CNCCC(c1ccccc1)c1ccc2[nH]cc(S(=O)(=O)N(C)C)c2c1 (stereo not drawn) [Compound 90, 5-(3-Methylamino-1-phenyl-propyl)-1H-indole-3-sulfonic acid dimethylamide]",–,–,38,240
"CNCCC(c1ccccc1)c1ccc2[nH]cc(C(N)=O)c2c1 (stereo not drawn) [Compound 91, 5-(3-Methylamino-1-phenyl-propyl)-1H-indole-3-carboxylic acid amide]",–,–,33.9,603
"CNCCC(c1ccccc1)c1ccc2[nH]cc(C(=O)N(C)C)c2c1 (stereo not drawn) [Compound 92, 5-(3-Methylamino-1-phenyl-propyl)-1H-indole-3-carboxylic acid dimethylamide]",–,–,35.5,316
"CNCCC(c1ccccc1)c1cc(OC)c2[nH]cc(C#N)c2c1 (stereo not drawn) [Compound 96, 7-Methoxy-5-(3-methylamino-1-phenyl-propyl)-1H-indole-3-carbonitrile]",–,–,85.1,97.7
"CNCCC(c1ccccc1)c1ccc2[nH]ccc2c1F (stereo not drawn) [Compound 97, [3-(4-Fluoro-1H-indol-5-yl)-3-phenyl-propyl]-methyl-amine]",–,–,9.33,17
"CNCC[C@H](c1ccccc1)c1cc(F)c2[nH]cc(C#N)c2c1 [Compound 99, 7-Fluoro-5-(3-methylamino-1-(R)-phenyl-propyl)-1H-indole-3-carbonitrile]",–,–,0.661,145
"CNCCC(c1ccccc1)c1cc2cc[nH]c2cc1F (stereo not drawn) [Compound 102, [3-(6-Fluoro-1H-indol-5-yl)-3-phenyl-propyl]-methyl-amine]",–,–,77.6,28.8
"NCCC(c1ccccc1)c1cc(Cl)c2[nH]c(C(N)=O)cc2c1 (stereo not drawn) [Compound 103, 5-(3-Amino-1-phenyl-propyl)-7-chloro-1H-indole-2-carboxylic acid amide]",–,–,145,4.37
CNCCC(c1cccc(F)c1)c1cc(Cl)c2[nH]ccc2c1 (stereo not drawn) [Compound 108],–,–,12.9,2.88
"CN(C)CCC(c1ccccc1)c1ccc2[nH]ccc2c1 (stereo not drawn) [Compound 113, [3-(1H-Indol-5-yl)-3-phenyl-propyl]-dimethyl-amine]",–,–,178,83.2
"CNCCC(c1ccc2c(c1)OCCN2C)c1ccc2[nH]ccc2c1 (stereo not drawn) [Compound 114, [3-(1H-Indol-5-yl)-3-(4-methyl-3,4-dihydro-2H-benzo[1,4]oxazin-7-yl)-propyl]-methyl-amine]",–,–,77.6,87.1
"CNCCC(c1ccc2[nH]ccc2c1)c1cccc2ccccc12 (stereo not drawn) [Compound 115, [3-(1H-Indol-5-yl)-3-naphthalen-1-yl-propyl]-methyl-amine]",–,–,8.13,43.7
"CNCCC(c1ccc2[nH]ccc2c1)c1ccc2sccc2c1 (stereo not drawn) [Compound 116, [3-Benzo[b]thiophen-5-yl-3-(1H-indol-5-yl)-propyl]-methyl-amine]",–,–,1.74,5.01
"CNCCC(c1ccc2[nH]ccc2c1)c1nccs1 (stereo not drawn) [Compound 139, [3-(1H-Indol-5-yl)-3-thiazol-2-yl-propyl]-methyl-amine]",–,–,–,74.1
